How the values were obtained:
Assay in all cases: relative viability (nuclei count vs DMSO), 5 days (fraction); higher = more cells survive
[1] = compound: C=CC(=O)Nc1cc(-n2c(=O)ccc3cnc4ccc(-c5ccc(NS(C)(=O)=O)cc5)cc4c32)ccc1C [BMX-IN-1] + CC1(C)CCC(c2ccc(Cl)cc2)=C(CN2CCN(c3ccc(C(=O)NS(=O)(=O)c4ccc(N[C@H](CCN5CCOCC5)CSc5ccccc5)c(S(=O)(=O)C(F)(F)F)c4)cc3)CC2)C1 [Navitoclax] (partner 0.5 µM)
How it was run: (§1)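 Five library-drug doses in √10 steps were combined with a fixed anchor-drug dose, or a single drug was given alone, by pin tool to lung cancer cell lines in 1536-well plates the day after seeding. Nuclei were stained and counted after 5 days. Relative viability is the nuclei count in treated wells over that in vehicle wells, taken as the median of duplicate plates.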

[2] = compound: C=CC(=O)N1CCC[C@@H](n2nc(-c3ccc(Oc4ccccc4)cc3)c3c(N)ncnc32)C1 [Ibrutinib] + Cc1nc(NC(=O)N2CCC[C@H]2C(N)=O)sc1-c1ccnc(C(C)(C)C(F)(F)F)c1 [Alpelisib] (partner 2 µM)
How it was run: as §1

[3] = compound: C=CC(=O)N1CCC[C@@H](n2nc(-c3ccc(Oc4ccccc4)cc3)c3c(N)ncnc32)C1 [Ibrutinib] + CC1(C)CCC(c2ccc(Cl)cc2)=C(CN2CCN(c3ccc(C(=O)NS(=O)(=O)c4ccc(N[C@H](CCN5CCOCC5)CSc5ccccc5)c(S(=O)(=O)C(F)(F)F)c4)cc3)CC2)C1 [Navitoclax] (partner 0.5 µM)
How it was run: as §1

[4] = compound: C=CCc1cccc(/C=N/NC(=O)CN2CCN(Cc3ccccc3)CC2)c1O [PAC-1] + N=C(N)NC(=N)NCCc1ccccc1 [Phenformin] (partner 250 µM)
How it was run: as §1

## SK-MES-1
[1]; first compound 0.02 µM
  relative viability: 1.45
[1]; first compound 0.2 µM
  relative viability: 1.45
[1]; first compound 0.6325 µM
  relative viability: 1.23
[1]; first compound 2 µM
  relative viability: 1.1
[2]; first compound 0.005 µM
  relative viability: 0.441
[2]; first compound 0.01581 µM
  relative viability: 0.842
[2]; first compound 0.05 µM
  relative viability: 0.599
[2]; first compound 0.1581 µM
  relative viability: 1
[2]; first compound 0.5 µM
  relative viability: 0.379
[3]; first compound 0.005 µM
  relative viability: 1.19
[3]; first compound 0.01581 µM
  relative viability: 1.2
[3]; first compound 0.05 µM
  relative viability: 1.34
[3]; first compound 0.1581 µM
  relative viability: 1.32
[3]; first compound 0.5 µM
  relative viability: 0.723
[4]; first compound 0.02 µM
  relative viability: 0.638
[4]; first compound 0.06325 µM
  relative viability: 0.661
[4]; first compound 0.2 µM
  relative viability: 0.381
[4]; first compound 2 µM
  relative viability: 0.645

Reference: the supplement of paper PMC10307832
